In US20170270277A1, “METHOD FOR SUPERVISING CONSUMPTION OF A MEDICAL FOOD FOR PREVENTION AND/OR MANAGEMENT OF A DISEASE OR CONDITION” (Photonz Corporation Ltd., priority 2012, published 2017):

Assay: Laboratory test of the patient's serum lipids after consumption of the medical food, change from baseline (Example 4)
Format: in vivo
Conditions: 'one or more of'
Description: “Blood data” as used herein includes levels of cholesterol, diglycerides and triglycerides amongst other parameters described herein. Blood data parameters can be measured in accordance with any clinically acceptable methodology. For example, triglycerides, total cholesterol, HDL-C and fasting blood sugar can be sampled from serum and analyzed using standard photometry techniques. VLDL-TG, LDL-C and VLDL-C can be calculated or determined using serum lipoprotein fractionation by preparative ultracentrifugation and subsequent quantitative analysis by refractometry or by analytic ultracentrifugal methodology. Apo AI, Apo B and hsCRP can be determined from serum using standard nephelometry techniques. Lipoprotein (a) can be determined from serum using standard turbidimetric immunoassay techniques. LDL particle number and particle size can be determined using nuclear magnetic resonance (NMR) spectrometry. Remnants lipoproteins and LDL-phospholipase A2 can be determined from EDTA plasma or serum and serum, respectively, using enzymatic immunoseparation techniques. Oxidized LDL, intercellular adhesion molecule-1 and interleukin-6 levels can be determined from serum using standard enzyme immunoassay techniques. These techniques are described in detail in standard textbooks, for example Tietz Fundamentals of Clinical Chemistry, 6th Ed. (Burtis, Ashwood and Borter Eds.), WB Saunders Company. In one embodiment, subjects fast for up to 12 hours prior to blood sample collection, for example about 10 hours.
This is a further example of one particular embodiment of practicing the invention. The results presented in this example are expected to be generated.
A patient is concerned about maintaining good cardiovascular health and advises a medical professional of this desire. The patient may be risk of developing or be diagnosed of having mixed dyslipidemia, hyperlipidemia and hypertriglyceridemia.
The medical professional sets up a laboratory in accordance with clinically acceptable methodologies to determine the patient's serum lipids including triglycerides, total cholesterol, HDL cholesterol, LDL cholesterol and fasting blood sugar. The patient may have one or more of: a baseline triglyceride level of about 300 mg/dl to about 1500 mg/dl; baseline non-HDL-C value of about 200 mg/dl to about 400 mg/dl; baseline total cholesterol value of about 250 mg/dl to about 400 mg/dl; baseline vLDL-C value of about 140 mg/dl to about 200 mg/dl; baseline HDL-C value of about 10 to about 60 mg/dl; and/or baseline LDL-C value of about 50 to about 300 mg/dl.
Additional patient registration data including age, sex, weight, relative level of fitness and health, history of illness, family history of illness, and current prescribed pharmaceutical medications and medical foods and dosages, are also accumulated as a data set on a back end computer. The medical professional queries the backend computer about the patient's laboratory data and lifestyle metrics and this back end computer calculates the dose of the EPA-ethyl ester to be provided to the patient as a medical food for a certain period of time based on the analyzed metrics in order for that patient's serum lipids to be returned to normal levels with a low risk of cardiovascular disease. […]
After consumption of the medical food for the specified period of time, the patient receives another laboratory test of their serum lipids and the data is analyzed for changes from the original baseline on the back end computer. […]

[1] = same patient and medical food dosing

## CC/C=C\C/C=C\C/C=C\C/C=C\C/C=C\CCCC(=O)OCC [EPA-ethyl ester, eicosapentaenoyl-ethyl ester]
Patient at risk of or with mixed dyslipidemia, hyperlipidemia, hypertriglyceridemia, 1 to 4 g of at least 60% pure EPA-ethyl ester 1 to 4 times per day
  triglyceride levels compared to baseline: reduced
[1]
  Apo B levels compared to baseline: reduced
  HDL-C levels compared to baseline: increased
  non-HDL-C levels compared to baseline: a reduction
  vLDL levels compared to baseline: a reduction
